Measurements taken from the NIST ThermoML archive (doi:10.1016/j.jct.2004.11.012).
Numbers after ± are expanded uncertainties.

Conditions: 298.15 K; 101.33 kPa; Liquid

| mass density [kg/m3] | SMILES |
| --- | --- |
| 1009.13 ± 0.13 | C=C(C)C(=O)O [2-methyl-2-propenoic acid] |
| 890.438 ± 0.28 | C=C(C)C(=O)OCCCC [butyl 2-methyl-2-propenoate] |
| 735.356 ± 0.27 | COC(C)(C)C [2-methoxy-2-methylpropane] |
| 927.997 ± 0.17 | C=CCOC(=O)C(=C)C [2-propenyl 2-methylpropenoate] |

| SMILES | mass density [kg/m3] |
| --- | --- |
| C=COC(C)=O [vinyl acetate] | 925.775 ± 0.16 |

Same assay, conditions: 308.15 K; 101.33 kPa; Liquid

| mass density [kg/m3] | SMILES |
| --- | --- |
| 998.64 ± 0.13 | C=C(C)C(=O)O [2-methyl-2-propenoic acid] |
| 880.857 ± 0.28 | C=C(C)C(=O)OCCCC [butyl 2-methyl-2-propenoate] |
| 724.85 ± 0.28 | COC(C)(C)C [2-methoxy-2-methylpropane] |
| 917.423 ± 0.18 | C=CCOC(=O)C(=C)C [2-propenyl 2-methylpropenoate] |

| SMILES | mass density [kg/m3] |
| --- | --- |
| C=COC(C)=O [vinyl acetate] | 913.134 ± 0.16 |
